Data: patent US6191113A, “Peptide for inhibiting growth of smooth muscle cells” (Juridical Foundation The Chemo-Sero-Therapeutic Research …, priority 1995, dated 2001)

Experiments:
[1] = test system: Vascular smooth muscle cells from human aorta; assay: Growth inhibition of smooth muscle cells by full-length TFPI or TFPI lacking the C-terminal region (cell count, DME); format: cell-based; conditions: 50 μg/ml in DME, counted nine days after plating, 3 wells, Student's t-test
Description: Vascular smooth muscle cells from human aorta (purchased from Kurabo K.K.) were used and subjected to passage culture with Dulbecco modified Eagle medium (hereinafter referred to as "DME") supplemented with 10% fetal calf serum. The smooth muscle cells with six passages were used in the following experiment.
The smooth muscle cells suspended in DME were plated on a 48 well culture plate (manufactured by Iwaki Glass K.K.) at a cell density of 5,000 cells/well and incubated in CO2 incubator at 37° C. Two days after plating, the culture medium was exchanged with DME containing 50 μg/ml of full-length TFPI or 50 μg/ml of TFPI lacking the C-terminal region or with DME alone as a control and culture was continued in CO2 incubator at 37° C. while the culture medium was exchanged with a fresh medium on every 2 days. The culture medium was used at 0.3 ml/well. Nine days after plating, the cells attached to the plate were detached by treatment with a trypsin/EDTA solution and then a cell number per well was counted with a hemocytometer. FIG. 1 is a graph showing a mean cell number as well as a standard deviation for three wells in each group.

[2] = test system: smooth muscle cells; assay: Cellular toxicity with Cytotox 96 kit; format: cell-based, human; conditions: Cytotox 96 kit (Promega)

Question: What does the source list for “full-length TFPI: intact human tissue factor pathway inhibitor purified from culture supernatant of Chinese hamster ovary cell line”?
Answer: activity to inhibit growth of smooth muscle cells (cell number per well vs control) [1]: significantly decreased cell number; cellular toxicity [2]: did not exhibit cellular toxicity
